What all share (assay): Weeding effect in post-emergence stage
What all share (assay type): in vivo

One assay deals with Abutilon theophrasti. The conditions noted are these: for Weeding effect in post-emergence stage, Abutilon theophrasti: level of fresh weight growth control rate; for Weeding effect in post-emergence stage, Abutilon theophrasti (level): fresh weight control rate level. The text has this:
(§1) The activity level criteria for plant damage (i.e., growth control rate) are as follows:
(§2) Monocotyledonous and dicotyledonous weed seeds (Descurainia sophia, Capsella bursa-pastoris, Abutilon theophrasti, Galium aparine, Stellaria media, Lithospermum arvense, rorippa indica, Alopecurus aequalis, Alopecurus japonicus, Eleusine indica, Beckmannia syzigachne, Sclerochloa dura, Conyza Canadensis, Phleum paniculatum, Veronica didyma Tenore, Bromus japonicus, Aegilops tauschii, Phalaris arundinacea, Amaranthus retroflexus, Chenopodiaceae, Commelina communis, Sonchus arvensis, Convolvulus arvensis, Cirsium setosum, Bidens tripartita L., Solanum nigrum, Acalypha australis, Digitaria sanguinalis, Echinochloa crusgalli, Setaria viridis, Setaria glauca, Leptochloa chinensis, Monochoria vaginalis, Sagittaria trifolia, Scirpus juncoides, Cyperus rotundus, Cyperus iria, Cyperus difformis, Fimbristylis, Portulaca oleracea, Xanthium sibiricum, Pharbitis nil, etc.) and major crop seeds (wheat, corn, rice, soybean, cotton, oilseed rape, millet, sorghum, potato, sesame, ricinus, etc.) were placed in plastic pots filled with soil, then covered with 0.5-2 cm of soil, allowed to grow in a good greenhouse environment. After 2 weeks of sowing, the test plants were treated in the 2-3 leaf stage. The tested compounds of the present invention were respectively dissolved in acetone, then added with Tween 80 and 1.5 liter/ha of emulsifiable concentrate of methyl oleate as synergist, diluted with a certain amount of water to obtain a solution with a certain concentration, and sprayed with a spray tower onto the plants. After the application, the plants were cultured for 3 weeks in the greenhouse, and then the experimental results of the weeding were counted. […]

For another assay, the system named is Digitaria sanguinalis. The following applies: Dose 15 g/ha; level of fresh weight growth control rate.
Text: as §1, §2

The subject of the next assay is Eleusine indica. The following applies: Dose 15 g/ha; level of fresh weight growth control rate.
Text: as §1, §2

For a further assay, the system named is Setaria viridis. The following applies: Dose 15 g/ha; level of fresh weight growth control rate.
Text: as §1, §2

The next assay concerns Echinochloa crusgalli. The conditions noted are these: Dose 15 g/ha; level of fresh weight growth control rate.
Text: as §1
Monocotyledonous and dicotyledonous weed seeds (Descurainia sophia, Capsella bursa-pastoris, Abutilon theophrasti, Galium aparine, Stellaria media, Lithospermum arvense, rorippa indica, Alopecurus aequalis, Alopecurus japonicus, Eleusine indica, Beckmannia syzigachne, Sclerochloa dura, Conyza Canadensis, Phleum paniculatum, Veronica didyma Tenore, Bromus japonicus, Aegilops tauschii, Phalaris arundinacea, Amaranthus retroflexus, Chenopodiaceae, Commelina communis, Sonchus arvensis, Convolvulus arvensis, Cirsium setosum, Bidens tripartita L., Solanum nigrum, Acalypha australis, Digitaria sanguinalis, Echinochloa crusgalli, Setaria viridis, Setaria glauca, Leptochloa chinensis, Monochoria vaginalis, Sagittaria trifolia, Scirpus juncoides, Cyperus rotundus, Cyperus iria, Cyperus difformis, Fimbristylis, Portulaca oleracea, Xanthium sibiricum, Pharbitis nil, etc.) and major crop seeds (wheat, corn, rice, soybean, cotton, oilseed rape, millet, sorghum, potato, sesame, ricinus, etc.) were placed in plastic pots filled with soil, then covered with 0.5-2 cm of soil, allowed to grow in a good greenhouse environment. After 2 weeks of sowing, the test plants were treated in the 2-3 leaf stage. The tested compounds of the present invention were respectively dissolved in acetone, then added with Tween 80 and 1.5 liter/ha of emulsifiable concentrate of methyl oleate as synergist, diluted with a certain amount of water to obtain a solution with a certain concentration, and sprayed with a spray tower onto the plants. After the application, the plants were cultured for 3 weeks in the greenhouse, and then the experimental results of the weeding were counted. The doses of the used compounds were 500, 250, 125, 60, 30, 15, 7.5 g/ha, and the averages were obtained by repeating for three times.

Regarding `COC(=O)C(C)O/N=C/c1cc(-n2c(=O)n(C)c(=S)n(C)c2=O)c(F)cc1C(F)(F)F` (racemic) [Compound 85], the “Weeding effect in post-emergence stage, Abutilon theophrasti” value in the assay on Abutilon theophrasti (Dose 15 g/ha) is given as 5 (Level 5: growth control rate is above 85%). The “Weeding effect in post-emergence stage, Digitaria sanguinalis” value (shortened to “Weeding effect … Digitaria sanguinalis”) with Digitaria sanguinalis is on record as 5 (Level 5: growth control rate is above 85%). For the same compound, in the assay with Eleusine indica, the “Weeding effect in post-emergence stage, Eleusine indica” value (from here on “Weeding effect … Eleusine indica”) is listed as 5 (Level 5: growth control rate is above 85%). In addition, the “Weeding effect in post-emergence stage, Setaria viridis” value (shortened to “Weeding effect … Setaria viridis”) with Setaria viridis is on record as 5 (Level 5: growth control rate is above 85%). In the assay on Echinochloa crusgalli, the “Weeding effect in post-emergence stage, Echinochloa crusgalli” value (“Weeding effect … Echinochloa crusgalli” below) is given as 5 (Level 5: growth control rate is above 85%). As to `CCC(C)(O/N=C/c1cc(-n2c(=O)cc(C(F)(F)F)n(C)c2=O)c(F)cc1Cl)C(=O)OC` (racemic) [Compound 471], in the assay with Abutilon theophrasti (Dose 15 g/ha), the “Weeding effect in post-emergence stage, Abutilon theophrasti (level)” value (“Weeding effect … (level)” below) is recorded as 5 (Level 5: growth control rate is above 85%). Consider `COC(=O)C(C)O/N=C/c1cc(-n2c(=O)c(Br)c(C(F)(F)F)n(C)c2=O)c(F)cc1Cl` (racemic) [Compound 475], for which the “Weeding effect … (level)” value in the assay on Abutilon theophrasti (Dose 15 g/ha) is given as 5 (Level 5: growth control rate is above 85%).

As for `COC(=O)C(C)O/N=C/c1cc(-n2c(=O)c(I)c(C(F)(F)F)n(C)c2=O)c(F)cc1Cl` (racemic) [Compound 476], in the assay on Abutilon theophrasti (Dose 15 g/ha), the “Weeding effect … (level)” value is 5 (Level 5: growth control rate is above 85%).

Turning to `COC(=O)C(C)O/N=C/c1cc(-n2c(=O)c(OC)c(C(F)(F)F)n(C)c2=O)c(F)cc1Cl` (racemic) [Compound 477], the “Weeding effect … (level)” value with Abutilon theophrasti (Dose 15 g/ha) is 5 (Level 5: growth control rate is above 85%). Turning to `CC(O/N=C/c1cc(-n2c(=O)c(CCO)c(C(F)(F)F)n(C)c2=O)c(F)cc1Cl)C(=O)OCCO` (racemic) [Compound 478], the “Weeding effect … (level)” value with Abutilon theophrasti (Dose 60 g/ha) is 5 (Level 5: growth control rate is above 85%). Regarding `COC(=O)CC(C)O/N=C/c1cc(-n2c(=O)cc(C(F)(F)F)n(C)c2=O)c(F)cc1Cl` (racemic) [Compound 481], in the assay with Abutilon theophrasti (Dose 15 g/ha), the “Weeding effect … (level)” value is listed as 5 (Level 5: growth control rate is above 85%).

Take `CCC[C@@H](O/N=C/c1cc(-n2c(=O)n(C)c(=S)n(C)c2=O)c(F)cc1Cl)C(=O)OCC` [74(R)]: in the assay on Abutilon theophrasti (Dose 15 g/ha), the “Weeding effect in post-emergence stage, Abutilon theophrasti” value is listed as 5 (Level 5: growth control rate is above 85%). In addition, in the assay on Digitaria sanguinalis, the “Weeding effect … Digitaria sanguinalis” value is 4 (Level 4: growth control rate is greater than or equal to 60% and less than 85%). For the same compound, the “Weeding effect … Eleusine indica” value in the assay on Eleusine indica is given as 5 (Level 5: growth control rate is above 85%). Besides, the “Weeding effect … Setaria viridis” value in the assay on Setaria viridis is given as 5 (Level 5: growth control rate is above 85%). In the assay with Echinochloa crusgalli, the “Weeding effect … Echinochloa crusgalli” value is on record as 5 (Level 5: growth control rate is above 85%).

As to `CC(ON=Cc1cc(-n2c(=O)cc(C(F)(F)F)n(C)c2=O)c(F)cc1Cl)C(=O)OCCOC(=O)C(C)ON=Cc1cc(-n2c(=O)cc(C(F)(F)F)n(C)c2=O)c(F)cc1Cl` [451(R)], the “Weeding effect … (level)” value in the assay on Abutilon theophrasti (Dose 15 g/ha) was 5 (Level 5: growth control rate is above 85%). Turning to `C[C@@H](O/N=C/c1cc(-n2c(=O)cc(C(F)(F)F)n(C)c2=O)c(F)cc1Cl)C(=O)NO` [452(R)], the “Weeding effect … (level)” value with Abutilon theophrasti (Dose 15 g/ha) is on record as 5 (Level 5: growth control rate is above 85%). Still for that read-out and setting: the result for `CC[C@@](C)(O/N=C/c1cc(-n2c(=O)cc(C(F)(F)F)n(C)c2=O)c(F)cc1Cl)C(=O)OC` [471(R)] reads 5 (Level 5: growth control rate is above 85%). Still for that read-out and setting: with `COC(=O)[C@@H](C)O/N=C/c1cc(-n2c(=O)c(Br)c(C(F)(F)F)n(C)c2=O)c(F)cc1Cl` [475(R)] the figure was 5 (Level 5: growth control rate is above 85%); with `COC(=O)[C@@H](C)O/N=C/c1cc(-n2c(=O)c(I)c(C(F)(F)F)n(C)c2=O)c(F)cc1Cl` [476(R)], 5 (Level 5: growth control rate is above 85%); with `COC(=O)[C@@H](C)O/N=C/c1cc(-n2c(=O)c(OC)c(C(F)(F)F)n(C)c2=O)c(F)cc1Cl` [477(R)], 5 (Level 5: growth control rate is above 85%). For the compound `C[C@@H](O/N=C/c1cc(-n2c(=O)c(CCO)c(C(F)(F)F)n(C)c2=O)c(F)cc1Cl)C(=O)OCCO` [478(R)], in the assay on Abutilon theophrasti (Dose 60 g/ha), the “Weeding effect … (level)” value is 5 (Level 5: growth control rate is above 85%).

Consider `COC(=O)C[C@@H](C)O/N=C/c1cc(-n2c(=O)cc(C(F)(F)F)n(C)c2=O)c(F)cc1Cl` [481(R)], for which the “Weeding effect … (level)” value with Abutilon theophrasti (Dose 15 g/ha) is 5 (Level 5: growth control rate is above 85%). Consider `CC(O/N=C/c1cc(-n2c(=O)n(C)c(=S)n(C)c2=O)c(F)cc1Cl)C(=O)OCc1cccnc1` (centres unmarked) [Compound 59], for which the “Weeding effect in post-emergence stage, Abutilon theophrasti” value in the assay with Abutilon theophrasti (Dose 15 g/ha) was 5 (Level 5: growth control rate is above 85%). The “Weeding effect … Digitaria sanguinalis” value in the assay on Digitaria sanguinalis is reported as 5 (Level 5: growth control rate is above 85%). For the same compound, the “Weeding effect … Eleusine indica” value with Eleusine indica is 5 (Level 5: growth control rate is above 85%). The “Weeding effect … Setaria viridis” value with Setaria viridis was 5 (Level 5: growth control rate is above 85%). Further, the “Weeding effect … Echinochloa crusgalli” value in the assay on Echinochloa crusgalli was 5 (Level 5: growth control rate is above 85%). With `CCCC(O/N=C/c1cc(-n2c(=O)n(C)c(=S)n(C)c2=O)c(F)cc1Cl)C(=O)OCC` (centres unmarked) [Compound 74], in the assay on Abutilon theophrasti (Dose 15 g/ha), the “Weeding effect in post-emergence stage, Abutilon theophrasti” value is reported as 5 (Level 5: growth control rate is above 85%). The “Weeding effect … Digitaria sanguinalis” value with Digitaria sanguinalis is 4 (Level 4: growth control rate is greater than or equal to 60% and less than 85%). Also, the “Weeding effect … Eleusine indica” value in the assay on Eleusine indica was 4 (Level 4: growth control rate is greater than or equal to 60% and less than 85%). In the assay on Setaria viridis, the “Weeding effect … Setaria viridis” value was 5 (Level 5: growth control rate is above 85%). Further, the “Weeding effect … Echinochloa crusgalli” value with Echinochloa crusgalli was 5 (Level 5: growth control rate is above 85%). Regarding `CC(O/N=C/c1cc(-n2c(=O)cc(C(F)(F)F)n(C)c2=O)c(F)cc1Cl)C(=O)OCCOC(=O)C(C)O/N=C/c1cc(-n2c(=O)cc(C(F)(F)F)n(C)c2=O)c(F)cc1Cl` (centres unmarked) [Compound 451], the “Weeding effect … (level)” value with Abutilon theophrasti (Dose 15 g/ha) is given as 5 (Level 5: growth control rate is above 85%). The same measure, in the same setting: the result for `CC(O/N=C/c1cc(-n2c(=O)cc(C(F)(F)F)n(C)c2=O)c(F)cc1Cl)C(=O)NO` (centres unmarked) [Compound 452] reads 5 (Level 5: growth control rate is above 85%); that for `COC(=O)CCO/N=C/c1cc(-n2c(=O)cc(C(F)(F)F)n(C)c2=O)c(F)cc1Cl` [Compound 479], 5 (Level 5: growth control rate is above 85%).

`CCOC(=O)CCO/N=C/c1cc(-n2c(=O)cc(C(F)(F)F)n(C)c2=O)c(F)cc1Cl` [Compound 480]: the “Weeding effect … (level)” value with Abutilon theophrasti (Dose 15 g/ha) is reported as 5 (Level 5: growth control rate is above 85%).

For the origin of these results see US20230111310A1, “CARBOXYLIC ACID DERIVATIVE-SUBSTITUTED IMINO ARYL COMPOUND, PREPARATION METHOD THEREFOR, HERBICIDAL COMPOSITION AND USE THEREOF” (Qingdao Kingagroot Chemical Compound Co., Ltd., priority 2020, published 2023).
